The source of these data is PMC10348910, “Epigenetic reprogramming of cell cycle genes by ACK1 promotes breast cancer resistance to CDK4/6 inhibitor” (Oncogene, 2023).

The test system of series [1] is 78 targets (cell surface receptors, ion channels, kinases, nuclear hormone receptors, GPCRs and other relevant enzymes). The experiment in a line: DiscoverX SAFETYscan pharmacological profiling (78 assays). An excerpt:
We performed pharmacological profiling of (R)-9b, to identify undesirable off-target activity profile using DiscoverX SAFETYscan, which has a broad menu containing 78 assays, and provides functional data for cell surface receptors, ion channels, kinases, nuclear hormone receptors, GPCRs and other relevant enzymes, inhibition of which could cause significant toxicity in human clinical trials.

The test system of series [2] is CCNB1, CCNB2 and CDC20 protein. The experiment in a line: immunoblotting of CCNB1, CCNB2 and CDC20. The format is cell-based. Particulars: breast cancer cell lysates. From the text:
Fig. 3 ACK1 inhibitor suppresses expression of cell cycle genes. A Cell lysates from vehicle or (R)-9b treated cells were immunoblotted using CCNB1, CCNB2 and CDC20 antibodies. B HCC-1395 and MDA-MB-231 cells were transfected with ACK1 and scrambled siRNAs, followed by qPCR using ACK1 primers, with 18S rRNA as internal control. C siRNA transfected cells were subjected to western blotting using ACK1 antibody, with Actin as loading control. RNA from silenced cells, (D) HCC-1395 and (E) MDA-MB-231 was subjected to qPCR using CCNB1, CCNB2 and CDC20 primers. 18S rRNA was used as housekeeping control. For (A) and (C), representative images of three independent experiments are shown. For (B, D, E), data are represented as the mean ± SEM. *p < 0.05, **p < 0.01, ***p < 0.001, unpaired two-tailed Student’s t test.
Vehicle or (R)-9b (5 µM, overnight in serum free media) treated cells were lysed by sonication in receptor lysis buffer (RLB) and lysates were fractionated by SDS-PAGE, and transferred onto a PVDF membrane (Immobilon). […]
(In western blotting, separated proteins are transferred to a membrane and probed.)

Series [3] concerns pY88-H4 marks at CDC20, CCNB1 and CCNB2. The experiment in a line: ChIP-qPCR with pY88-H4 antibody at CDC20, CCNB1 and CCNB2 loci. In kind it is cell-based. Particulars: breast cancer cell lines. The protocol:
Fig. 4 ACK1 epigenetically modifies the chromatin landscape by depositing pY88-H4 activating marks, regulating cell cycle genes. A Breast cancer cell lines were treated with (R)-9b overnight and the cell lysates were subjected to immunoprecipitation using pY88-H4 antibody, followed by immunoblotting with H4 antibody. Lysates were also subjected to immunoblotting with total H4 and Actin antibodies, shown in the lower panels. […] B Venn diagrams summarizing the overlap between sites bound by pY88-H4 in vehicle treated and (R)-9b treated MDA-MB-453 cells. […] Breast cancer cells were subjected to ChIP using pY88-H4 antibody followed by qPCR for (D) CCNB1, (E) CCNB2, and (F) CDC20 genes. […]
Cell pellets were resuspended in RLB buffer and sonicated and the soluble chromatin was incubated with antibodies and Protein-G/A magnetic beads. […] The size and quality of the library was evaluated using the Agilent BioAnalyzer (Agilent Technologies, Inc., Santa Clara, CA), and the library was quantitated with the Kapa Library Quantification Kit. Each enriched DNA library was then sequenced on an Illumina NextSeq 500 sequencer to generate 40–50 million 75-base paired-end reads (Illumina, Inc., San Diego, CA). […]
Real-time quantitative PCR analyses were performed using the ABI PRISM 7900HT Sequence Detection System (Applied Biosystems) as described earlier. […]
(In general: In qPCR the cycle at which signal appears reflects the starting amount.)

In series [4] the test system is MDA-MB-231 lung metastasis. The experiment in a line: tail vein assay of cancer metastasis. In kind it is in vivo, female SCID mice. Particulars: 24 mg/Kg, 5 days a week. Here is the method:
To validate the functional significance in vivo, we performed the tail vein assay of cancer metastasis. Briefly, MDA-MB-231 cells were injected in tail veins of female SCID mice and were treated with vehicle or 24 mg/Kg (R)-9b either subcutaneously or orally, for 5 days a week. The mice were euthanized and the lungs were harvested, preserved in 10% neutral buffered formalin, followed by H&E staining. Sections were examined by pathologist (C.W), and scored for metastatic nodules/deposits in 12 × 10 mm area of lung tissue.
MDA-MB-231 cells (2 × 10^5 in PBS), were injected intravenously in the lateral tail vein of female SCID mice. After 10 days, the mice were randomly chosen for treatment with either vehicle, (R)-9b (36 mg/Kg body weight) orally or subcutaneously (s.c.) (24 mg/Kg body weight) for 5 days a week, for 2 weeks. The mice were sacrificed and the lungs were harvested and fixed in 10% neutral buffered formalin. The number of metastatic foci per lung were scored in a blinded fashion by a pathologist (C.W.).

Series [5] relates to prostate cancer cell lines. Further details: method as in PMID 28609657. As to conditions: various prostate cancer cell lines; cited from earlier work.

Structures are written as SMILES.

As to `CN1CCN(c2ccc(Nc3ncc(Cl)c(NC[C@H]4CCCO4)n3)cc2)CC1` [(R)-9b], in series [1], the “off-target inhibition in SAFETYscan” value is given as “None of the 78 targets were inhibited significantly”. The “CCNB1, CCNB2 and CDC20 protein abundance” value in series [2] is recorded as “decrease in respective protein abundance”. Besides, the “pY88-H4 marks at CDC20, CCNB1 and CCNB2 gene loci (ChIP-qPCR)” value in series [3] is “significantly compromised”. In addition, the lung metastatic deposits is listed as 2 deposits in series [4] ((R)-9b oral) and “no deposits” in series [4] ((R)-9b subcutaneous). Moreover, the IC50 (commonly the point on the concentration scale where inhibition reaches its midpoint) in series [5] is 400 nM.
